From PubChem BioAssay AID248 (DTP/NCI, 2004)
Several values for one entry are separate records, joined by “and”; a condition that tells them apart may be missing. Equal values may be shown once. Inconclusive results and toxic doses are left out.

Tested on: L1210 leukemia ip in BDF1 mice, survival T/C
Assay: NCI In Vivo Anticancer Drug Screen. Data for tumor model L1210 Leukemia (intraperitoneal) in B6D2F1 (BDF1) mice
Conditions: higher = longer survival
In short: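 Tumor cells were implanted, animals were treated, and survival was followed. The result divides the treated measurement by the vehicle-control measurement.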

Question: Which results are given for `NC(C/[N+]([O-])=N/O)C(=O)O` (stereo not drawn)?
Answer: T/C (endpoint: mean survival time, dose: 200.0 mg/kg/injection, schedule: Q01DX001 (ip), vehicle: carboxymethylcellulose (CMC)): 124 % of control; T/C (endpoint: mean survival time, dose: 200.0 mg/kg/injection, schedule: Q01DX003 (ip), vehicle: sodium bicarbonate): 164 % of control; T/C (endpoint: mean survival time, dose: 200.0 mg/kg/injection, schedule: Q01DX009 (ip), vehicle: saline): 102 % of control; T/C (endpoint: mean survival time, dose: 256.0 mg/kg/injection, schedule: Q01DX001 (ip), vehicle: saline): 117 % of control; T/C (endpoint: mean survival time, dose: 256.0 mg/kg/injection, schedule: Q01DX001 (oral), vehicle: saline): 103 % of control; T/C (endpoint: mean survival time, dose: 256.0 mg/kg/injection, schedule: Q01DX001 (sc), vehicle: saline): 108 % of control; T/C (endpoint: mean survival time, dose: 256.0 mg/kg/injection, schedule: Q01DX009 (ip), vehicle: saline): 95 % of control; T/C (endpoint: mean survival time, dose: 256.0 mg/kg/injection, schedule: Q08DX002 (ip), vehicle: saline): 121 % of control; T/C (endpoint: mean survival time, dose: 266.0 mg/kg/injection, schedule: Q04DX003 (ip), vehicle: saline with Tween-80): 115 % of control; T/C (endpoint: mean survival time, dose: 400.0 mg/kg/injection, schedule: Q01DX003 (ip), vehicle: sodium bicarbonate): 172 % of control; T/C (endpoint: mean survival time, dose: 400.0 mg/kg/injection, schedule: Q04DX003 (ip), vehicle: Klucel (hydroxypropylcellulose) (HPC)): 151 % of control; T/C (endpoint: mean survival time, dose: 512.0 mg/kg/injection, schedule: Q01DX001 (ip), vehicle: saline): 117 % of control; T/C (endpoint: mean survival time, dose: 512.0 mg/kg/injection, schedule: Q01DX001 (oral), vehicle: saline): 97 % of control; T/C (endpoint: mean survival time, dose: 512.0 mg/kg/injection, schedule: Q01DX001 (sc), vehicle: saline): 106 % of control; T/C (endpoint: mean survival time, dose: 600.0 mg/kg/injection, schedule: Q01DX003 (ip), vehicle: sodium bicarbonate): 172 % of control; T/C (endpoint: mean survival time, dose: 600.0 mg/kg/injection, schedule: Q04DX003 (ip), vehicle: saline with Tween-80): 121 % of control; T/C (endpoint: mean survival time, dose: 600.0 mg/kg/injection, schedule: Q04DX003 (ip), vehicle: saline): 161 % of control and 159 % of control; T/C (endpoint: mean survival time, dose: 800.0 mg/kg/injection, schedule: Q01DX003 (ip), vehicle: sodium bicarbonate): 175 % of control; T/C (endpoint: mean survival time, dose: 800.0 mg/kg/injection, schedule: Q04DX003 (ip), vehicle: Klucel (hydroxypropylcellulose) (HPC)): 106 % of control; T/C (endpoint: mean survival time, dose: 800.0 mg/kg/injection, schedule: Q04DX003 (ip), vehicle: saline with Tween-80): 154 % of control; T/C (endpoint: mean survival time, dose: 1000.0 mg/kg/injection, schedule: Q01DX003 (ip), vehicle: sodium bicarbonate): 96 % of control; T/C (endpoint: mean survival time, dose: 1000.0 mg/kg/injection, schedule: Q04DX003 (ip), vehicle: saline with Tween-80): 92 % of control; T/C (endpoint: mean survival time, dose: 1024.0 mg/kg/injection, schedule: Q01DX001 (sc), vehicle: saline): 110 % of control; T/C (endpoint: mean survival time, dose: 1024.0 mg/kg/injection, schedule: Q04DX003 (ip), vehicle: saline): 150 % of control; T/C (endpoint: median survival time, dose: 8.0 mg/kg/injection, schedule: Q01DX009 (ip), vehicle: saline): 105 % of control; T/C (endpoint: median survival time, dose: 8.0 mg/kg/injection, schedule: Q01DX009 (oral), vehicle: saline): 100 % of control; T/C (endpoint: median survival time, dose: 8.0 mg/kg/injection, schedule: Q01DX009 (sc), vehicle: saline): 105 % of control; T/C (endpoint: median survival time, dose: 16.0 mg/kg/injection, schedule: Q01DX009 (oral), vehicle: saline): 100 % of control; T/C (endpoint: median survival time, dose: 16.0 mg/kg/injection, schedule: Q01DX009 (sc), vehicle: saline): 100 % of control and 105 % of control; T/C (endpoint: median survival time, dose: 32.0 mg/kg/injection, schedule: Q01DX009 (oral), vehicle: saline): 111 % of control; T/C (endpoint: median survival time, dose: 32.0 mg/kg/injection, schedule: Q01DX009 (sc), vehicle: saline): 111 % of control; T/C (endpoint: median survival time, dose: 64.0 mg/kg/injection, schedule: Q01DX009 (ip), vehicle: saline): 100 % of control and 111 % of control; T/C (endpoint: median survival time, dose: 64.0 mg/kg/injection, schedule: Q04DX003 (ip), vehicle: saline): 105 % of control; T/C (endpoint: median survival time, dose: 64.0 mg/kg/injection, schedule: Q04DX003 (oral), vehicle: saline): 100 % of control; T/C (endpoint: median survival time, dose: 100.0 mg/kg/injection, schedule: Q04DX003 (ip), vehicle: saline): 116 % of control and 100 % of control; T/C (endpoint: median survival time, dose: 128.0 mg/kg/injection, schedule: Q01DX009 (ip), vehicle: saline): 100 % of control; T/C (endpoint: median survival time, dose: 128.0 mg/kg/injection, schedule: Q01DX009 (sc), vehicle: saline): 105 % of control; T/C (endpoint: median survival time, dose: 128.0 mg/kg/injection, schedule: Q04DX003 (oral), vehicle: saline): 100 % of control; T/C (endpoint: median survival time, dose: 200.0 mg/kg/injection, schedule: Q04DX003 (ip), vehicle: saline): 111 % of control; T/C (endpoint: median survival time, dose: 400.0 mg/kg/injection, schedule: Q04DX003 (ip), vehicle: saline): 116 % of control; T/C (endpoint: median survival time, dose: 1000.0 mg/kg/injection, schedule: Q04DX003 (ip), vehicle: saline): 155 % of control; T/C (endpoint: median survival time, dose: 1024.0 mg/kg/injection, schedule: Q04DX003 (ip), vehicle: saline): 111 % of control; T/C (endpoint: median survival time, dose: 1024.0 mg/kg/injection, schedule: Q04DX003 (sc), vehicle: saline): 94 % of control
